The values that follow come from patent US9227971B2, “Pyrazolo[1,5-a]pyrimidine compounds as mTOR inhibitors” (Merck Sharp & Dohme Corp., priority 2010, dated 2016).

One assay has as its target human mTOR enzyme (Homo sapiens, UniProt P42345). As to the kind of experiment: mTOR kinase assay (HTRF mTOR enzyme assay). Format: biochemical. The conditions noted are these: 5 μM ATP, 0.2 μM GST-S6K, one hour at 30° C. Here is the method:
An HTRF mTOR enzyme assay was developed to assess the compounds' inhibitory activity. The mTOR assay buffer contained 10 mM Hepes (pH 7.4), 50 mM NaCl, 100 μg/ml BSA, 50 mM B-glycerophosphate, 10 mM MnCl2 and 0.5 mM DTT. […] 20 ng of human mTOR enzyme (<5% pure was preincubated with the compound for 10 minutes followed by the addition of 5 μM ATP and 0.2 μM GST-S6K (Zhang et al., Protein Expression and Purification 46, pp 414-420 (2006)). The reaction was incubated for one hour at 30° C. Anti phospho p70-S6K(Thr389) (˜1.7 ng/well, anti-phospho-p70S6K-cryptate (Pho-p70S6-Kin-K cat#64CUSKAY, from Cisbio)) and anti GST-XL665 (1:1 Ratio with the substrate GST-S6K, anti GST-XL665, cat#61 GSTXLB) Cisbio) were added after the reaction was stopped. The plates were read (PHERAstar, BMG) at least 2 hours after adding the anti phospho p70-S6K and the anti GST-XL665.
Dose-response curves were plotted from the inhibition data generated, each in duplicate, from 8 point serial dilutions of inhibitory compounds. Concentration of compound was plotted against the HTRF em665/em590 ratio signal. To generate IC50 values, the dose-response curves were fitted to a standard sigmoidal curve and IC50 values were derived by nonlinear regression analysis.

In assay [1] the test system is phosphorylated AKT Ser473 (pAKT S473), mTORC2 activity, PC3 cells. As to the kind of experiment: mTOR target engagement assay, immunofluorescent cell-based, pAKT S473 readout (mTORC2 activity). The conditions noted are these: Homo sapiens, PC-3, PC3 cells; given as a number, no unit. A digest of the protocol:
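After blocking, cells were stained overnight at 4 °C with anti-pAKT S473 antibody, then a fluorescent secondary; inhibition was read as reduced fluorescence intensity.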

In assay [2] the test system is phosphorylated 4E-BP1 Thr37/46 (p4E-BP1 Thr37/46), mTORC1 activity, PC3 cells. As to the kind of experiment: mTOR target engagement assay, immunofluorescent cell-based, p4E-BP1 Thr37/46 readout (mTORC1 activity). The following applies: Homo sapiens, PC-3, PC3 cells; given as a number, no unit; read-out: p4E-1 Thr37/46 IC50. A digest of the protocol: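 PTEN-mutant PC3 prostate cells were treated with serially diluted compound in 5% FBS F12 medium (0.25% DMSO) for ninety minutes at 37° C, glyoxal-fixed, then immunostained overnight at 4° C for p4E-BP1 Thr37/46 with an Alexa Fluor 488 secondary. IC50 came from four-parameter fits of fluorescence, DMSO-only wells defining 100%.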

Sequence of human mTOR enzyme (P42345 1360-2549 limits assumed): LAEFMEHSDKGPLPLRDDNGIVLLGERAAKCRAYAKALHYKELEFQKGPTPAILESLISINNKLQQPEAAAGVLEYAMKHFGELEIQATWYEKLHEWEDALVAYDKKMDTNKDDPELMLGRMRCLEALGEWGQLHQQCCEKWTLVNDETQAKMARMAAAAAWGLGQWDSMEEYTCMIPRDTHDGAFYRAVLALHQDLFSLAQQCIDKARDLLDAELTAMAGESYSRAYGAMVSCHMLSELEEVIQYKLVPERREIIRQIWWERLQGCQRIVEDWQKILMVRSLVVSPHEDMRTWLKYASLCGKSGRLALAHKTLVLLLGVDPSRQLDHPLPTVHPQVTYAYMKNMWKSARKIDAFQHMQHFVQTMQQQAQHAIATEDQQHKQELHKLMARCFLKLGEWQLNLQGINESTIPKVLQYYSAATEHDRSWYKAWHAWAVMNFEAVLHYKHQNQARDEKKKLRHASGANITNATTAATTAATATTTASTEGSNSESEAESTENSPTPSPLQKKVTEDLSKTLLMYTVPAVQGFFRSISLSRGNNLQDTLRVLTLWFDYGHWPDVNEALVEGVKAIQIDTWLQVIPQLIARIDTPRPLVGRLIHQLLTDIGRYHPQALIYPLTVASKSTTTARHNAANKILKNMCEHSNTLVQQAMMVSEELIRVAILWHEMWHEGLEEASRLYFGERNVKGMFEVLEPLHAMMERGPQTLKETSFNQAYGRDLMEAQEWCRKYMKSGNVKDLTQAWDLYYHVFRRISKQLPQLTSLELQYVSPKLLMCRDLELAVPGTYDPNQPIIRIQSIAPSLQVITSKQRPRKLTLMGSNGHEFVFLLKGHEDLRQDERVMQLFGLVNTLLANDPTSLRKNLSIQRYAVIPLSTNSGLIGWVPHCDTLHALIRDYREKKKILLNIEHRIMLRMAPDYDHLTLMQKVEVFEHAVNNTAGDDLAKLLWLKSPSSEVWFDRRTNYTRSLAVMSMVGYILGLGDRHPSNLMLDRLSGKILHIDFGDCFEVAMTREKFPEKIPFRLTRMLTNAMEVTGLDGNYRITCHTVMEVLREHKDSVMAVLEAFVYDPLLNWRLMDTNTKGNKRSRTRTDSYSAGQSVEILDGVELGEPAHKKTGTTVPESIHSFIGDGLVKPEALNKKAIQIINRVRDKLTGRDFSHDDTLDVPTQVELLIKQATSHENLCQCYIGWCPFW

Take `CC(=O)c1c(N2CC3CCC2CN3C(=O)c2nnc[nH]2)nc2c(-c3ccc(-c4ccccc4)nc3)cnn2c1N` (stereo not drawn) [Compound 48]: the IC50 against human mTOR enzyme lay within 1 to 10 nM. Consider `Nc1cc([C@@H]2C[C@H]3CC[C@@H](C2)N3)nc2c(-c3cc[nH]c(=O)c3)cnn12` [Example 8B, 4-{7-Amino-5-[(3-exo)-8-azabicyclo[3.2.1]oct-3-yl]pyrazolo[1,5-a]pyrimidin-3-yl}pyridin-2(1H)-one], for which, on human mTOR enzyme, the IC50 was found to be 489 nM. Consider `CC(=O)c1c([C@@H]2C[C@H]3CC[C@@H](C2)N3C(=O)c2nnc[nH]2)nc2c(-c3ccc(-c4nn(C)cc4F)nc3)cnn2c1N` [Compound 1.1.93, 1-(5-((1R,3s,5S)-8-(4H-1,2,4-triazole-3-carbonyl)-8-azabicyclo[3.2.1]octan-3-yl)-7-amino-3-(6-(4-fluoro-1-methyl-1H-pyrazol-3-yl)pyridin-3-yl)pyrazolo[1,5-a]pyrimidin-6-yl)ethanone], for which the IC50 at human mTOR enzyme is 2.3 nM; in assay [1], 4.07 µM; in assay [2], 3.88 µM. As to `CC(=O)c1c(N2C3CCC2CN(C(=O)[C@@H](C)O)C3)nc2c(-c3ccc(-c4ccccc4)nc3)cnn2c1N` [Compound 50], the IC50 at human mTOR enzyme was in the range of 10 to 25 nM. Still for that read-out and setting: the figure for `Nc1c(F)c([C@@H]2C[C@H]3CC[C@@H](C2)N3C(=O)CO)nc2c(-c3ccc(-c4ncc[nH]4)nc3)cnn12` [Example 8A, 1-[(3-Exo)-3-{7-amino-6-fluoro-3-[6-(1H-imidazol-2-yl)pyridin-3-yl]pyrazolo[1,5-a]pyrimidin-5-yl}-8-azabicyclo[3.2.1]oct-8-yl]-2-hydroxyethanone] is 2 nM.

In turn, `CC(=O)c1c(N2CC3CCC2CN3C(=O)[C@@H](C)O)nc2c(-c3ccc(-c4ccccc4)nc3)cnn2c1N` (stereo partly drawn) [Compound 47] returned an IC50 on human mTOR enzyme of 10 to 25 nM. The same measure, in the same setting: the figure for `CC(=O)c1c(N2C3CCC2CN(C(=O)CO)C3)nc2c(-c3ccc(-c4ccccc4)nc3)cnn2c1N` [Compound 49] is 1 to 10 nM.
